In the supplement of paper PMC10307832:

Columns and labels:
Assay in all cases: relative viability (nuclei count vs DMSO), 5 days (fraction); higher = more cells survive
[1] = compound: C1CC(C1)(C(=O)O)C(=O)O.[NH2-].[NH2-].[Pt+2] [Carboplatin] + CS(=O)(=O)N1CCN(Cc2cc3nc(-c4cccc5[nH]ncc45)nc(N4CCOCC4)c3s2)CC1 [Pictilisib] (partner 1 µM)
Procedure, shortened: (§1)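 Relative viability divides the nuclei count in treated wells by that in vehicle wells. Lung cancer cell lines were seeded in 1536-well plates, dosed by pin tool the next day, and fixed and stained after 5 days in one step with final 0.05% Triton X-100, 1% formaldehyde and 1 ug/ml Hoechst. Dosing was a single drug or a fixed anchor-drug dose plus five library-drug doses (not always all listed) in √10 steps, and values are medians of duplicate plates imaged at 4×.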

[2] = compound: NS(=O)(=O)OC[C@@H]1C[C@@H](n2ccc3c(N[C@H]4CCc5ccccc54)ncnc32)C[C@@H]1O [MLN4924] + CC1(C)CCC(c2ccc(Cl)cc2)=C(CN2CCN(c3ccc(C(=O)NS(=O)(=O)c4ccc(N[C@H](CCN5CCOCC5)CSc5ccccc5)c(S(=O)(=O)C(F)(F)F)c4)cc3)CC2)C1 [Navitoclax] (partner 0.5 µM)
Procedure, shortened: as §1

[3] = compound: NS(=O)(=O)OC[C@@H]1C[C@@H](n2ccc3c(N[C@H]4CCc5ccccc54)ncnc32)C[C@@H]1O [MLN4924] + C[C@]1(O)C[C@@H](c2nc(-c3ccc4ccc(-c5ccccc5)nc4c3)c3c(N)nccn32)C1 [Linsitinib] (partner 1 µM)
Procedure, shortened: as §1

[4] = compound: CC[C@H](C)N1C=C(C2=C(C=C(C=C21)C3=CN=C(C=C3)N4CCNCC4)C(=O)NCC5=C(C=C(NC5=O)C)C)C [GSK126] + CS(=O)(=O)CCNCc1ccc(-c2ccc3ncnc(Nc4ccc(OCc5cccc(F)c5)c(Cl)c4)c3c2)o1 [Lapatinib] (partner 2 µM)
Procedure, shortened: as §1

Cell Line: RERF-LC-KJ
- relative viability ([1]; first compound 0.08 µM): 0.584
- relative viability ([1]; first compound 0.253 µM): 0.48
- relative viability ([1]; first compound 0.8 µM): 0.512
- relative viability ([1]; first compound 2.53 µM): 0.453
- relative viability ([1]; first compound 8 µM): 0.316
- relative viability ([2]; first compound 0.04 µM): 0.855
- relative viability ([2]; first compound 0.1265 µM): 0.569
- relative viability ([2]; first compound 0.4 µM): 0.229
- relative viability ([2]; first compound 1.265 µM): 0.177
- relative viability ([2]; first compound 4 µM): 0.209
- relative viability ([3]; first compound 0.04 µM): 0.64
- relative viability ([3]; first compound 0.1265 µM): 0.463
- relative viability ([3]; first compound 0.4 µM): 0.198
- relative viability ([3]; first compound 1.265 µM): 0.188
- relative viability ([3]; first compound 4 µM): 0.234
- relative viability ([4]; first compound 0.08 µM): 0.927
- relative viability ([4]; first compound 0.253 µM): 0.854
- relative viability ([4]; first compound 0.8 µM): 0.822
- relative viability ([4]; first compound 2.53 µM): 0.889
- relative viability ([4]; first compound 8 µM): 0.867

Cell Line: IA-LM
- relative viability ([1]; first compound 0.08 µM): 0.404
- relative viability ([1]; first compound 0.253 µM): 0.373
- relative viability ([1]; first compound 0.8 µM): 0.353
- relative viability ([1]; first compound 2.53 µM): 0.261
- relative viability ([1]; first compound 8 µM): 0.242
- relative viability ([2]; first compound 0.04 µM): 0.238
- relative viability ([2]; first compound 0.1265 µM): 0.159
- relative viability ([2]; first compound 0.4 µM): 0.0746
- relative viability ([2]; first compound 1.265 µM): 0.0607
- relative viability ([2]; first compound 4 µM): 0.0616
- relative viability ([3]; first compound 0.04 µM): 0.252
- relative viability ([3]; first compound 0.1265 µM): 0.197
- relative viability ([3]; first compound 0.4 µM): 0.155
- relative viability ([3]; first compound 1.265 µM): 0.0583
- relative viability ([3]; first compound 4 µM): 0.0889
- relative viability ([4]; first compound 0.08 µM): 1
- relative viability ([4]; first compound 0.253 µM): 0.717
- relative viability ([4]; first compound 0.8 µM): 0.708
- relative viability ([4]; first compound 2.53 µM): 0.762
- relative viability ([4]; first compound 8 µM): 0.892

Cell Line: NCI-H2126
- relative viability ([1]; first compound 0.08 µM): 0.47
- relative viability ([1]; first compound 0.253 µM): 0.516
- relative viability ([1]; first compound 0.8 µM): 0.518
- relative viability ([1]; first compound 2.53 µM): 0.511
- relative viability ([1]; first compound 8 µM): 0.452
- relative viability ([2]; first compound 0.04 µM): 0.764
- relative viability ([2]; first compound 0.1265 µM): 0.742
- relative viability ([2]; first compound 0.4 µM): 0.621
- relative viability ([2]; first compound 1.265 µM): 0.386
- relative viability ([2]; first compound 4 µM): 0.446
- relative viability ([3]; first compound 0.04 µM): 0.747
- relative viability ([3]; first compound 0.1265 µM): 0.69
- relative viability ([3]; first compound 0.4 µM): 0.576
- relative viability ([3]; first compound 1.265 µM): 0.327
- relative viability ([3]; first compound 4 µM): 0.391
- relative viability ([4]; first compound 0.08 µM): 0.758
- relative viability ([4]; first compound 0.253 µM): 0.792
- relative viability ([4]; first compound 0.8 µM): 0.726
- relative viability ([4]; first compound 2.53 µM): 0.819
- relative viability ([4]; first compound 8 µM): 0.782

Cell Line: NCI-H2228
- relative viability ([1]; first compound 0.08 µM): 0.547
- relative viability ([1]; first compound 0.253 µM): 0.385
- relative viability ([1]; first compound 0.8 µM): 0.446
- relative viability ([1]; first compound 2.53 µM): 0.326
- relative viability ([1]; first compound 8 µM): 0.312
- relative viability ([2]; first compound 0.1265 µM): 1.03
- relative viability ([2]; first compound 0.4 µM): 0.221
- relative viability ([2]; first compound 1.265 µM): 0.135
- relative viability ([2]; first compound 4 µM): 0.155
- relative viability ([3]; first compound 0.1265 µM): 0.419
- relative viability ([3]; first compound 0.4 µM): 0.355
- relative viability ([3]; first compound 1.265 µM): 0.163
- relative viability ([3]; first compound 4 µM): 0.18
- relative viability ([4]; first compound 0.08 µM): 1.11
- relative viability ([4]; first compound 0.253 µM): 1.15
- relative viability ([4]; first compound 0.8 µM): 1.06
- relative viability ([4]; first compound 2.53 µM): 1.16
- relative viability ([4]; first compound 8 µM): 1.33

Cell Line: SK-LU-1
- relative viability ([1]; first compound 0.08 µM): 0.542
- relative viability ([1]; first compound 0.253 µM): 0.664
- relative viability ([1]; first compound 0.8 µM): 0.528
- relative viability ([1]; first compound 2.53 µM): 0.542
- relative viability ([1]; first compound 8 µM): 0.411
- relative viability ([2]; first compound 0.04 µM): 0.737
- relative viability ([2]; first compound 0.1265 µM): 0.618
- relative viability ([2]; first compound 0.4 µM): 0.175
- relative viability ([2]; first compound 1.265 µM): 0.127
- relative viability ([2]; first compound 4 µM): 0.167
- relative viability ([3]; first compound 0.04 µM): 0.747
- relative viability ([3]; first compound 0.1265 µM): 0.443
- relative viability ([3]; first compound 0.4 µM): 0.19
- relative viability ([3]; first compound 1.265 µM): 0.181
- relative viability ([3]; first compound 4 µM): 0.216
- relative viability ([4]; first compound 0.08 µM): 0.91
- relative viability ([4]; first compound 0.253 µM): 0.882
- relative viability ([4]; first compound 0.8 µM): 0.889
- relative viability ([4]; first compound 2.53 µM): 0.913
- relative viability ([4]; first compound 8 µM): 0.818

Cell Line: HARA
- relative viability ([1]; first compound 0.08 µM): 0.424
- relative viability ([1]; first compound 0.253 µM): 0.341
- relative viability ([1]; first compound 0.8 µM): 0.387
- relative viability ([1]; first compound 2.53 µM): 0.382
- relative viability ([1]; first compound 8 µM): 0.391
- relative viability ([2]; first compound 0.04 µM): 0.847
- relative viability ([2]; first compound 0.1265 µM): 0.601
- relative viability ([2]; first compound 0.4 µM): 0.379
- relative viability ([2]; first compound 1.265 µM): 0.105
- relative viability ([2]; first compound 4 µM): 0.115
- relative viability ([3]; first compound 0.04 µM): 0.568
- relative viability ([3]; first compound 0.1265 µM): 0.455
- relative viability ([3]; first compound 0.4 µM): 0.481
- relative viability ([3]; first compound 1.265 µM): 0.092
- relative viability ([3]; first compound 4 µM): 0.0886
- relative viability ([4]; first compound 0.08 µM): 0.734
- relative viability ([4]; first compound 0.253 µM): 0.602
- relative viability ([4]; first compound 0.8 µM): 0.736
- relative viability ([4]; first compound 2.53 µM): 0.804
- relative viability ([4]; first compound 8 µM): 0.807

Cell Line: EPLC-272H
- relative viability ([1]; first compound 0.08 µM): 0.373
- relative viability ([1]; first compound 0.253 µM): 0.305
- relative viability ([1]; first compound 0.8 µM): 0.313
- relative viability ([1]; first compound 2.53 µM): 0.322
- relative viability ([1]; first compound 8 µM): 0.349
- relative viability ([2]; first compound 0.04 µM): 0.94
- relative viability ([2]; first compound 0.1265 µM): 1.02
- relative viability ([2]; first compound 0.4 µM): 0.104
- relative viability ([2]; first compound 1.265 µM): 0.12
- relative viability ([2]; first compound 4 µM): 0.141
- relative viability ([3]; first compound 0.04 µM): 1.14
- relative viability ([3]; first compound 0.1265 µM): 1.13
- relative viability ([3]; first compound 0.4 µM): 0.147
- relative viability ([3]; first compound 1.265 µM): 0.183
- relative viability ([3]; first compound 4 µM): 0.216
- relative viability ([4]; first compound 0.08 µM): 0.995
- relative viability ([4]; first compound 0.253 µM): 0.975
- relative viability ([4]; first compound 0.8 µM): 0.851
- relative viability ([4]; first compound 2.53 µM): 1.06
- relative viability ([4]; first compound 8 µM): 0.915

Cell Line: SK-MES-1
- relative viability ([1]; first compound 0.08 µM): 0.402
- relative viability ([1]; first compound 0.253 µM): 0.272
- relative viability ([1]; first compound 0.8 µM): 0.358
- relative viability ([1]; first compound 2.53 µM): 0.328
- relative viability ([1]; first compound 8 µM): 0.303
- relative viability ([2]; first compound 0.04 µM): 1.04
- relative viability ([2]; first compound 0.1265 µM): 1.04
- relative viability ([2]; first compound 0.4 µM): 0.62
- relative viability ([2]; first compound 1.265 µM): 0.199
- relative viability ([2]; first compound 4 µM): 0.166
- relative viability ([3]; first compound 0.04 µM): 0.976
- relative viability ([3]; first compound 0.1265 µM): 0.825
- relative viability ([3]; first compound 0.4 µM): 0.35
- relative viability ([3]; first compound 1.265 µM): 0.215
- relative viability ([3]; first compound 4 µM): 0.207
- relative viability ([4]; first compound 0.08 µM): 0.496
- relative viability ([4]; first compound 0.253 µM): 0.455
- relative viability ([4]; first compound 0.8 µM): 0.482
- relative viability ([4]; first compound 2.53 µM): 0.431
- relative viability ([4]; first compound 8 µM): 0.46
